Patent publication US20240245712A1, “METHODS AND MATERIALS FOR IDENTIFYING AND TREATING MEMBRANOUS NEPHROPATHY” (Mayo Foundation for Medical Education and Research, priority 2023, published 2024)

System: syphilis-associated membranous nephropathy (nephrotic syndrome)
Assay: Follow-up of syphilis-associated NDNF-positive membranous nephropathy patients treated with antibiotics
Type: in vivo, human
Experimental: Biopsies for diagnosis were evaluated. The diagnosis of MN was confirmed by light microscopy (LM), immunofluorescence (IF) microscopy including PLA2R studies, and electron microscopy (EM). The clinical information was obtained from the accompanying charts. For detection of novel proteins, MS/MS was performed in 250 cases of PLA2R-negative cases (discovery cohort) that included cases used for identification of EXT1/EXT2, NELL1, SEMA3B, PCDH7, and FAT1 (Sethi et al., J. Am. Soc. Nephrol., 30:1123-1136 (2019); Sethi et al., Kid. Int., 97:163-174 (2020); Sethi et al., Kid. Int., 98:1253-1265 (2020); Sethi et al., J. Am. Soc. Nephrol., 32:1249-1261 (2021); and Sethi et al., J. Am. Soc. Nephrol., 33:1033-1044 (2022)). A NDNF polypeptide was detected in 3 cases of PLA2R-negative MN (NDNF-associated MN) by MS/MS. All 3 cases were negative for spectral counts for THSD7A, EXT1/EXT2, NELL1, SEMA3B, HTRA1, CNTN1, NCAM1, PCDH7, and FAT1 while baseline spectral counts for PLA2R were present in 2 of the 3 cases.
Using MS/MS, 14 cases of hepatitis B-associated MN and 5 cases of syphilis-associated MN were screened for MN antigens (validation cohort). Tissue from 4 cases (cases 4-7) of syphilis-associated MN were obtained from Cedars Sinai Medical Center and one case (cases 8-9) from Mayo Clinic. Cases 8 and 9 were from the same patient who was biopsied twice, 3 months apart. […]

## penicillin
Case 8, repeat biopsy 3 months later, after complete remission
  Repeat kidney biopsy finding after treatment: continued to show membranous nephropathy
Patients with syphilis and NDNF-associated MN, follow-up available in 4 of the 6 cases of syphilis
  Outcome of the nephrotic syndrome after antibiotic treatment: complete remission
